In ChEMBL document CHEMBL3991601, “The target landscape of clinical kinase drugs” (Science, 2017):
Active and inactive are the calls of the source. On the calls: in the data inactive means no Kd found up to 30 µM.

Legend:
[1] = target: Dual specificity protein kinase CLK4 (Homo sapiens, UniProt Q9HAZ1)
[2] = target: Serine/threonine-protein kinase 38-like (Homo sapiens, UniProt Q9Y2H1)
[3] = target: Uncharacterized aarF domain-containing protein kinase 5 (Homo sapiens, UniProt Q3MIX3)
[4] = target: T1, Long-chain-fatty-acid--CoA ligase 5 (Homo sapiens, UniProt Q9ULC5)
T1 sequence (Q9ULC5 whole entry): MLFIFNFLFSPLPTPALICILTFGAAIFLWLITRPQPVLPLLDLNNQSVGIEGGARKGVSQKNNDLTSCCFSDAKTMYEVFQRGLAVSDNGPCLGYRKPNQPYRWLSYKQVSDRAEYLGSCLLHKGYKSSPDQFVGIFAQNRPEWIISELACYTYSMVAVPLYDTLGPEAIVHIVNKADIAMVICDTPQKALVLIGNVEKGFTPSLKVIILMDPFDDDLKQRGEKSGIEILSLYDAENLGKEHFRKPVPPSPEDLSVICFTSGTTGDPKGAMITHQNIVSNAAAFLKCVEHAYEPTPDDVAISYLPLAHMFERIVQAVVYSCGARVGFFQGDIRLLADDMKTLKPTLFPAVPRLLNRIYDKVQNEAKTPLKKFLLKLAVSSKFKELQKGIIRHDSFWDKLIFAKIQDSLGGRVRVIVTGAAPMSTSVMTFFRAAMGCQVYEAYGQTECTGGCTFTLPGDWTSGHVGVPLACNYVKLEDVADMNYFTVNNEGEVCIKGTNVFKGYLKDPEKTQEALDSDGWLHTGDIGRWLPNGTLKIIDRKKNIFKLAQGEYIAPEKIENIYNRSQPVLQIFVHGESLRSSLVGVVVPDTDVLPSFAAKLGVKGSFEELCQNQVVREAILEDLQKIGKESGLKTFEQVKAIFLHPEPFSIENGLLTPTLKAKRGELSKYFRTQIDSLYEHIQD

[5] = target: T2, Tyrosine-protein kinase Mer (Homo sapiens, UniProt Q12866)
T2 sequence (Q12866 whole entry): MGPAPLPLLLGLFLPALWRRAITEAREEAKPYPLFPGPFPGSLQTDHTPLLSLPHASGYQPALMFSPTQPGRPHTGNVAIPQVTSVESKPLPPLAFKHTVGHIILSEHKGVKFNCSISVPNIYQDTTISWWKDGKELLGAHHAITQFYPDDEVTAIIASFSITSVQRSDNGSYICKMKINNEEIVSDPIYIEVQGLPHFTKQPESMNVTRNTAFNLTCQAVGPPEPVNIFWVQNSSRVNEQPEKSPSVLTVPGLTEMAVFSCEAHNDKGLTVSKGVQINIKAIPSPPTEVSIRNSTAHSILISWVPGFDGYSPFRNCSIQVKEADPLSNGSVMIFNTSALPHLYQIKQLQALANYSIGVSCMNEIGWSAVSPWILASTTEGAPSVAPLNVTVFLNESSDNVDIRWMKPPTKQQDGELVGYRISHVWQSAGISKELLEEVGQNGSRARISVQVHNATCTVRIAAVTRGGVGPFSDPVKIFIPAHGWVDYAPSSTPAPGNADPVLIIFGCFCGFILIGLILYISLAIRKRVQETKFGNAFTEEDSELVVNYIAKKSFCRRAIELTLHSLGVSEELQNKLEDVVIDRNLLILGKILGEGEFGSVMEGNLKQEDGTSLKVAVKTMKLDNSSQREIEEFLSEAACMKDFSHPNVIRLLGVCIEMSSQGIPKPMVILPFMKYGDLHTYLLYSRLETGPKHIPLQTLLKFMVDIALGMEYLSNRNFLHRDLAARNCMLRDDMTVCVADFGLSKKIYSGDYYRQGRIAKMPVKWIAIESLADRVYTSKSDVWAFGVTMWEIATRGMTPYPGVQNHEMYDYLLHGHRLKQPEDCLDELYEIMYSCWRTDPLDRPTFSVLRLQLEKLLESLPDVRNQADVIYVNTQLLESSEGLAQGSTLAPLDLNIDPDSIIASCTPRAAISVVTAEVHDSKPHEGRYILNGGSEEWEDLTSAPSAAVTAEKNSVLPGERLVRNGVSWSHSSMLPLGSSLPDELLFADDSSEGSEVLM

[6] = target: Misshapen-like kinase 1 (Homo sapiens, UniProt Q8N4C8)
[7] = target: T3, Dual specificity protein kinase TTK (Homo sapiens, UniProt P33981)
T3 sequence (P33981 whole entry): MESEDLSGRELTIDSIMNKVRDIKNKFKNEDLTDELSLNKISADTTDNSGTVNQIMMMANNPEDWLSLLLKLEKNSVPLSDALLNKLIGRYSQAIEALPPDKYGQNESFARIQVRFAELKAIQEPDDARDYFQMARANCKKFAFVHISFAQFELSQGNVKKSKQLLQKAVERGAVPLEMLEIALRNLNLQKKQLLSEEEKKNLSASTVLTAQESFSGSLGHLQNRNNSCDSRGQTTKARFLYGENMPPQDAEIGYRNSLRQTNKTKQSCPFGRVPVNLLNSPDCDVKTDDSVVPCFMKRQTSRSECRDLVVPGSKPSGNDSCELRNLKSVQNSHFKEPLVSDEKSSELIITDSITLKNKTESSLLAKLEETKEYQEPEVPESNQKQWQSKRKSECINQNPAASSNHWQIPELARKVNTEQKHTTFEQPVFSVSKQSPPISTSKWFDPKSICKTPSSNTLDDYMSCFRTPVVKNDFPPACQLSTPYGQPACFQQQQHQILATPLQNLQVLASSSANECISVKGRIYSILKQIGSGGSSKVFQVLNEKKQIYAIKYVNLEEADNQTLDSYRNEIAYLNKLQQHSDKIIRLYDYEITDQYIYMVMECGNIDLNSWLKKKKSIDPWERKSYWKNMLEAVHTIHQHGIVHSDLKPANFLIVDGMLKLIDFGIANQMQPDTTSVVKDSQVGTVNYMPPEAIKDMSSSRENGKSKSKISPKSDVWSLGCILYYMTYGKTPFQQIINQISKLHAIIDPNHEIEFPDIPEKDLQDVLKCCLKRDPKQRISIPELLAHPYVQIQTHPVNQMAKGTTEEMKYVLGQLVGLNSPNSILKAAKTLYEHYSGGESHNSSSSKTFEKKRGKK

[8] = target: Dual specificity protein kinase CLK3 (Homo sapiens, UniProt P49761); type: subcellular, K-562, COLO 205, SK-N-BE(2) and MV-4-11, Cell lysate; conditions: read-out: Kd apparent
Sequence of Dual specificity protein kinase CLK3 (P49761 whole entry): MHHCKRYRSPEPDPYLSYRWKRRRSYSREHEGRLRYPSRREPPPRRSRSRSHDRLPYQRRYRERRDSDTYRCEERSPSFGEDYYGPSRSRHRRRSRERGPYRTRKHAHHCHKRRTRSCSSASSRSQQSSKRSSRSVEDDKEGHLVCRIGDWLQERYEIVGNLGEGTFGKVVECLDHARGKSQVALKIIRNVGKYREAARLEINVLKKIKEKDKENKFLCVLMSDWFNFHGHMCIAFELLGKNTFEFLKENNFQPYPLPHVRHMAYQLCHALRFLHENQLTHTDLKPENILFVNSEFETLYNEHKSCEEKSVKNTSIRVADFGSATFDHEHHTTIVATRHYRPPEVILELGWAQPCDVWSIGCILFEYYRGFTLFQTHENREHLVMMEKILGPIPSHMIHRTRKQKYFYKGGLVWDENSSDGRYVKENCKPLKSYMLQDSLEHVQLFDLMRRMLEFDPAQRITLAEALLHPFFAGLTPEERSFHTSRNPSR

Sequence of Misshapen-like kinase 1 (Q8N4C8 whole entry): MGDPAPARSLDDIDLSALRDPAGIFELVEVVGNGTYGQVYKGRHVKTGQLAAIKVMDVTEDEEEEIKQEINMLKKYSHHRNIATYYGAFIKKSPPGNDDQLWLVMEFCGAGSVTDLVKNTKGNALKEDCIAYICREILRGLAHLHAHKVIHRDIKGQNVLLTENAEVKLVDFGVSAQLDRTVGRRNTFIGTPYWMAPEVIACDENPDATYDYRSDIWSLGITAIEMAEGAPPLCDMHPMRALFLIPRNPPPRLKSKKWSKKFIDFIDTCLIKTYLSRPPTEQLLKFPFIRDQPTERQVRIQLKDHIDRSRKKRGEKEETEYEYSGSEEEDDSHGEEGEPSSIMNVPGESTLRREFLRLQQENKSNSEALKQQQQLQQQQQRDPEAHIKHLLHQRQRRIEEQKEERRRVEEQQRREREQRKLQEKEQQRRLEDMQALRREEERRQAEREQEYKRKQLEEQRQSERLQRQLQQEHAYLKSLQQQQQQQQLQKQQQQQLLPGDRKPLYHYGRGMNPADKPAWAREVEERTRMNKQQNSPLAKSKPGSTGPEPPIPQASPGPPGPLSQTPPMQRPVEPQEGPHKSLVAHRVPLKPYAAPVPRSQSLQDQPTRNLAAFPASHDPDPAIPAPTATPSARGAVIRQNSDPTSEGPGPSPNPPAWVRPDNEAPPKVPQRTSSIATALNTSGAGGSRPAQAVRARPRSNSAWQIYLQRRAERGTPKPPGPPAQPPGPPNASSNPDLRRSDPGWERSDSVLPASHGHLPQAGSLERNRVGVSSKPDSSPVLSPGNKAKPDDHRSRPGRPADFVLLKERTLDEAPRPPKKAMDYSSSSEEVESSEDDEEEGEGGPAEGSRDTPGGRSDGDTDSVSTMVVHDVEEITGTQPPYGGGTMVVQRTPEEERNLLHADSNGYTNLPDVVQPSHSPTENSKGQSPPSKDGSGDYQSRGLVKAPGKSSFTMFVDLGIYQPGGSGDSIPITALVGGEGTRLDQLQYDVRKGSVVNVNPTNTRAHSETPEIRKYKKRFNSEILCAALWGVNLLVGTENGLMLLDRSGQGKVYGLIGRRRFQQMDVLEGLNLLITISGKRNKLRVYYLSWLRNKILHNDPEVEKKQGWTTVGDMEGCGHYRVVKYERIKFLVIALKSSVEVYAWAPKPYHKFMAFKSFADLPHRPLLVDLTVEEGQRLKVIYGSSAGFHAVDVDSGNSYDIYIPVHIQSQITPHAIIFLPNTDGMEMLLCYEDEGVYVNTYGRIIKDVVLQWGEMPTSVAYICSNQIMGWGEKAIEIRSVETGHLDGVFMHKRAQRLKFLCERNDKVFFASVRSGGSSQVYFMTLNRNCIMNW
Sequence of Uncharacterized aarF domain-containing protein kinase 5 (Q3MIX3 whole entry, the tested form may be a part): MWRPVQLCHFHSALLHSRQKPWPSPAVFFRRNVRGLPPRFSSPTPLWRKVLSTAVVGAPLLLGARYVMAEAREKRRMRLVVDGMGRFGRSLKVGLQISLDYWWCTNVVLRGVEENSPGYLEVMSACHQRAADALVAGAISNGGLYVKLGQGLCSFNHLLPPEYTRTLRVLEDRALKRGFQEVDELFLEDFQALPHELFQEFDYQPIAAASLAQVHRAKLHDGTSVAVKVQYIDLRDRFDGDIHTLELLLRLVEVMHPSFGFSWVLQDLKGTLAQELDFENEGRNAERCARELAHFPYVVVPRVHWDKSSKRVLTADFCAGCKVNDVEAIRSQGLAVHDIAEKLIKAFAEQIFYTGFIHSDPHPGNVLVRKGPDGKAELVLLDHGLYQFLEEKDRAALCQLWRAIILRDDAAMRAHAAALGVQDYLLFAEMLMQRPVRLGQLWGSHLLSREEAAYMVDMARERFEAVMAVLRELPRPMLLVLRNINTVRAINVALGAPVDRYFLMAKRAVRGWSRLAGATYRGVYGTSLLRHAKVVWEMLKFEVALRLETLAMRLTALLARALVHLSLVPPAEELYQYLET
Sequence of Dual specificity protein kinase CLK4 (Q9HAZ1 whole entry): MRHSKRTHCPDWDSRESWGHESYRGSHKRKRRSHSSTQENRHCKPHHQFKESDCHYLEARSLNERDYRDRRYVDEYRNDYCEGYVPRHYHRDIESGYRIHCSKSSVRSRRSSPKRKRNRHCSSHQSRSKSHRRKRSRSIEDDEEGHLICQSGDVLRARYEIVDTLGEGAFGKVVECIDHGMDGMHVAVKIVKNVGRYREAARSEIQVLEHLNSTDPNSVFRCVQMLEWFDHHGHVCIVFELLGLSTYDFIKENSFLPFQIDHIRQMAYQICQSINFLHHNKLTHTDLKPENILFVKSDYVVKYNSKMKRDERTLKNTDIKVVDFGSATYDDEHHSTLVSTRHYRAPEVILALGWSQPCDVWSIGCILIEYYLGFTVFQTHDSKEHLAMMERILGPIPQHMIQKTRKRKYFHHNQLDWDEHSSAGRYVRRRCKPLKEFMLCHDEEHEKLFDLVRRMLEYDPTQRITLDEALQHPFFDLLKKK
Sequence of Serine/threonine-protein kinase 38-like (Q9Y2H1 whole entry, the tested form may be a part): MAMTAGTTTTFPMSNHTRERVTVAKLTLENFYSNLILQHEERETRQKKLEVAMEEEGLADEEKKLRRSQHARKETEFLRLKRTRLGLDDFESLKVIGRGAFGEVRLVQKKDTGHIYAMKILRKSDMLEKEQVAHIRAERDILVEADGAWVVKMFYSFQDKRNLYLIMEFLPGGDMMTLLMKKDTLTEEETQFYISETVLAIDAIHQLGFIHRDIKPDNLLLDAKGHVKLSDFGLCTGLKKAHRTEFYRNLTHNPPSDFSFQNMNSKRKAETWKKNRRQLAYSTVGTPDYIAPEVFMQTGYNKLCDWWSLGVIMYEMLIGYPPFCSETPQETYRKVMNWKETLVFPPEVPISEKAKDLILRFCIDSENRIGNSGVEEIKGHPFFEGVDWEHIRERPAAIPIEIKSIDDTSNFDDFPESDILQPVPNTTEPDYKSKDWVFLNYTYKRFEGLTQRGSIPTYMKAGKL

Kd [1] | Kd [2] | Kd [3] | Kd [4] | Kd [5] | Kd [6] | Kd [7] | Kd [8] | SMILES
> 30 µM (inactive) | > 30 µM (inactive) | > 30 µM (inactive) | > 30 µM (inactive) | > 30 µM (inactive) | – | – | – | Cc1nc2cc(-c3nn(C(C)C)c4ncnc(N)c34)ccc2o1
– | > 30 µM (inactive) | – | > 30 µM (inactive) | > 30 µM (inactive) | > 30 µM (inactive) | – | – | Nc1ncnc2c1c(-c1cccc(OCc3ccccc3)c1)cn2[C@H]1C[C@@H](CN2CCC2)C1 [AEW-541]
> 30 µM (inactive) | > 30 µM (inactive) | > 30 µM (inactive) | > 30 µM (inactive) | > 30 µM (inactive) | – | – | – | Cn1cnc2c(F)c(Nc3ccc(Br)cc3F)c(C(=O)NOCCO)cc21 [BINIMETINIB]
– | > 30 µM (inactive) | > 30 µM (inactive) | > 30 µM (inactive) | > 30 µM (inactive) | > 30 µM (inactive) | > 30 µM (inactive) | – | Cc1cc(Nc2ncc(Cl)c(Nc3ccccc3S(=O)(=O)C(C)C)n2)c(OC(C)C)cc1C1CCNCC1 [CERITINIB]
> 30 µM (inactive) | > 30 µM (inactive) | > 30 µM (inactive) | > 30 µM (inactive) | > 30 µM (inactive) | > 30 µM (inactive) | – | > 30 µM (inactive) | COc1c(OCCCN2CCOCC2)ccc2c1N=C(NC(=O)c1cnc(N)nc1)N1CCN=C21 [COPANLISIB]
> 30 µM (inactive) | > 30 µM (inactive) | > 30 µM (inactive) | > 30 µM (inactive) | > 30 µM (inactive) | – | – | – | COCC(=O)NC/C=C/c1ccc2ncnc(Nc3ccc(Oc4ccc(C)nc4)c(C)c3)c2c1 [CP-724714]
0.018 µM (active) | > 30 µM (inactive) | > 30 µM (inactive) | > 30 µM (inactive) | > 30 µM (inactive) | > 30 µM (inactive) | > 30 µM (inactive) | > 30 µM (inactive) | CNC(=O)c1nn(C)c2c1C(C)(C)Cc1cnc(Nc3ccc(N4CCN(C)CC4)cc3)nc1-2 [MILCICLIB]
> 30 µM (inactive) | > 30 µM (inactive) | > 30 µM (inactive) | – | > 30 µM (inactive) | 1.77 µM (active) | > 30 µM (inactive) | – | FC(F)(F)c1ccc(/C=C/c2nc(COc3ccc(CCCCn4ccnn4)cc3)co2)cc1 [MUBRITINIB]
> 30 µM (inactive) | > 30 µM (inactive) | > 30 µM (inactive) | > 30 µM (inactive) | – | > 30 µM (inactive) | > 30 µM (inactive) | – | COc1ncc(-c2ccc3nccc(-c4ccnnc4)c3c2)cc1NS(=O)(=O)c1ccc(F)cc1F [OMIPALISIB]
0.013 µM (active) | > 30 µM (inactive) | > 30 µM (inactive) | > 30 µM (inactive) | – | > 30 µM (inactive) | – | > 30 µM (inactive) | Cc1nc(Nc2n[nH]c3c2CN(C(=O)N[C@H](CN(C)C)c2ccccc2)C3(C)C)c2sccc2n1 [PF-03758309]
– | > 30 µM (inactive) | – | > 30 µM (inactive) | > 30 µM (inactive) | – | > 30 µM (inactive) | > 30 µM (inactive) | CC(=O)NCC(=O)N1[C@@H]2CC[C@H]1c1ccc(Nc3ncc(C(F)(F)F)c(NC4CCC4)n3)cc12 [PF-03814735]
> 30 µM (inactive) | > 30 µM (inactive) | > 30 µM (inactive) | > 30 µM (inactive) | > 30 µM (inactive) | – | > 30 µM (inactive) | > 30 µM (inactive) | CO[C@H]1C[C@@H]2CC[C@@H](C)[C@@](O)(O2)C(=O)C(=O)N2CCCC[C@H]2C(=O)O[C@H]([C@H](C)C[C@@H]2CC[C@@H](OP(C)(C)=O)[C@H](OC)C2)CC(=O)[C@H](C)/C=C(\C)[C@@H](O)[C@@H](OC)C(=O)[C@H](C)C[C@H](C)/C=C/C=C/C=C/1C [RIDAFOROLIMUS]
– | > 30 µM (inactive) | – | > 30 µM (inactive) | > 30 µM (inactive) | – | > 30 µM (inactive) | – | CCS(=O)(=O)c1cccc(-c2cc(C(=O)NC3CCN(C)CC3)c(C)c3[nH]c4ncc(C)cc4c23)c1 [TAK-901]
> 30 µM (inactive) | > 30 µM (inactive) | – | > 30 µM (inactive) | > 30 µM (inactive) | > 30 µM (inactive) | > 30 µM (inactive) | > 30 µM (inactive) | CO[C@H]1C[C@@H]2CC[C@@H](C)[C@@](O)(O2)C(=O)C(=O)N2CCCC[C@H]2C(=O)O[C@H]([C@H](C)C[C@@H]2CC[C@@H](OC(=O)C(C)(CO)CO)[C@H](OC)C2)CC(=O)[C@H](C)/C=C(\C)[C@@H](O)[C@@H](OC)C(=O)[C@H](C)C[C@H](C)/C=C/C=C/C=C/1C [TEMSIROLIMUS]
> 30 µM (inactive) | > 30 µM (inactive) | > 30 µM (inactive) | > 30 µM (inactive) | – | > 30 µM (inactive) | – | > 30 µM (inactive) | O=C(Cc1ccc(-c2ccc(OCCN3CCOCC3)cc2)cn1)NCc1ccccc1 [TIRBANIBULIN]
> 30 µM (inactive) | > 30 µM (inactive) | > 30 µM (inactive) | – | > 30 µM (inactive) | > 30 µM (inactive) | > 30 µM (inactive) | > 30 µM (inactive) | C[C@@H](NC(=O)c1ncnc(N)c1Cl)c1ncc(C(=O)Nc2cc(C(F)(F)F)c(Cl)cn2)s1 [TOVORAFENIB]

SMILES | Kd [1] | Kd [2] | Kd [3] | Kd [4] | Kd [5] | Kd [6] | Kd [7] | Kd [8]
O=C(Nc1cc(C(F)(F)F)cc(C(F)(F)F)c1)c1cc(Cl)ccc1O [IMD-0354] | – | > 30 µM (inactive) | > 30 µM (inactive) | – | > 30 µM (inactive) | > 30 µM (inactive) | > 30 µM (inactive) | > 30 µM (inactive)
CCOc1cc2ncc(C#N)c(Nc3ccc(F)c(Cl)c3)c2cc1NC(=O)/C=C/CN(C)C [PELITINIB] | – | > 30 µM (inactive) | > 30 µM (inactive) | – | > 30 µM (inactive) | > 30 µM (inactive) | > 30 µM (inactive) | –
